Measured values published in patent publication US9695155B2, “Herbicidal substituted pyrimidinyloxy benzene compounds” (E. I. DU PONT DE NEMOURS AND COMPANY, priority 2013, dated 2017).

Assays:
[1] = tested on: soybean; experiment: Test E postemergence; type: in vivo, Glycine max; conditions: Glycine max, post-emergence
Source text: (§1) Seeds of plant species selected from corn (Zea mays), soybean (Glycine max), velvetleaf (Abutilon theophrasti), lambsquarters (Chenopodium album), wild poinsettia (Euphorbia heterophylla), palmer pigweed (Amaranthus palmeri), waterhemp (common waterhemp, Amaranthus rudis), surinam grass (Brachiaria decumbens), large (Lg) crabgrass (Digitaria sanguinalis), Brazilian crabgrass (Digitaria horizontalis), fall panicum (Panicum dichotomiflorum), giant foxtail (Setaria faberii), green foxtail (Setaria viridis), goosegrass (Eleusine indica), johnsongrass (Sorghum halepense), ragweed (common ragweed, Ambrosia elatior), barnyardgrass (Echinochloa crus-galli), sandbur (southern sandbur, Cenchrus echinatus), arrowleaf sida (Sida rhombifolia), Italian ryegrass (Lolium multiflorum), dayflower (Virginia (VA) dayflower, Commelina virginica), field bindweed (Convolvulus arvensis), morningglory (Ipomoea coccinea), nightshade (eastern black nightshade, Solanum ptycanthum), kochia (Kochia scoparia), yellow nutsedge (Cyperus esculentus), cocklebur (common cocklebur, Xanthium strumarium), smartweed (ladysthumb smartweed, and hairy beggarticks (Bidens pilosa), were planted into a silt loam soil and treated preemergence with test chemicals formulated in a non-phytotoxic solvent mixture which included a surfactant.
(§2) At the same time, plants from these crop and weed species and also horseweed (Canada horseweed, Conyza canadensis), waterhemp_RES1, (ALS & Triazine resistant common waterhemp, Amaranthus rudis), and waterhemp_RES2, (ALS & HPPD resistant common waterhemp, Amaranthus rudis) were planted in pots containing Redi-Earth® planting medium (Scotts Company, 14111 Scottslawn Road, Marysville, Ohio 43041) comprising spaghnum peat moss, vermiculite, wetting agent and starter nutrients were treated with postemergence applications of test chemicals formulated in the same manner. Plants ranged in height from 2 to 18 cm for postemergence treatments (1- to 4-leaf stage). Treated plants and controls were maintained in a greenhouse for 14 to 21 days, after which time all species were compared to controls and visually evaluated. Plant response ratings, summarized in Table E, are based on a scale of 0 to 100 where 0 is no effect and 100 is complete control. A dash (-) response means no test result.

[2] = tested on: large (Lg) crabgrass; experiment: Test E preemergence; type: in vivo, Digitaria sanguinalis; conditions: for Crabgrass, Large plant response rating: scale 0 to 100 (0 no effect, 100 complete control); for Plant response rating, Crabgrass, Large: scale 0 to 100, 0 no effect, 100 complete control
Source text: as §1, §2

[3] = tested on: nightshade; experiment: Test E preemergence; type: in vivo, Solanum ptycanthum; conditions: for Nightshade plant response rating: scale 0 to 100 (0 no effect, 100 complete control); for Plant response rating, Nightshade: scale 0 to 100, 0 no effect, 100 complete control
Source text: as §1, §2

[4] = tested on: lambsquarters; experiment: Test E preemergence; type: in vivo, Chenopodium album; conditions: for Lambsquarters plant response rating: scale 0 to 100 (0 no effect, 100 complete control); for Plant response rating, Lambsquarters: scale 0 to 100, 0 no effect, 100 complete control
Source text: as §1, §2

[5] = tested on: hairy beggarticks; experiment: Test E preemergence; type: in vivo, Bidens pilosa; conditions: for Beggarticks plant response rating: scale 0 to 100 (0 no effect, 100 complete control); for Plant response rating, Beggarticks: scale 0 to 100, 0 no effect, 100 complete control
Summary of the method: (§3)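 Compound in a non-phytotoxic solvent mixture with surfactant was applied preemergence to seeds in silt loam soil, or postemergence to plants 2 to 18 cm tall grown in peat-based potting medium. Plants were kept in a greenhouse for 14 to 21 days, then rated visually against untreated controls on a 0 (no effect) to 100 (complete control) scale.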

[6] = tested on: goosegrass; experiment: Test E preemergence; type: in vivo, Eleusine indica; conditions: for Goosegrass plant response rating: scale 0 to 100 (0 no effect, 100 complete control); for Plant response rating, Goosegrass: scale 0 to 100, 0 no effect, 100 complete control
Summary of the method: as §3

[7] = tested on: dayflower; experiment: Test E postemergence; type: in vivo, Commelina virginica; conditions: Commelina virginica, post-emergence, read-out: Plant response rating, Dayflower, VA
Source text: as §1, §2

[8] = tested on: johnsongrass; experiment: Test E preemergence; type: in vivo, Sorghum halepense; conditions: for Johnsongrass plant response rating: scale 0 to 100 (0 no effect, 100 complete control); for Plant response rating, Johnsongrass: scale 0 to 100, 0 no effect, 100 complete control
Summary of the method: as §3

[9] = tested on: sandbur; experiment: Test E postemergence; type: in vivo, Cenchrus echinatus; conditions: Cenchrus echinatus, post-emergence, read-out: Plant response rating, Sandbur
Summary of the method: as §3

[10] = tested on: fall panicum; experiment: Test E postemergence; type: in vivo, Panicum dichotomiflorum; conditions: Panicum dichotomiflorum, post-emergence, read-out: Plant response rating, Panicum, Fall
Source text: as §1, §2

[11] = tested on: waterhemp_RES2 (ALS & HPPD resistant common waterhemp); experiment: Test E postemergence; type: in vivo, Amaranthus rudis; conditions: Amaranthus tuberculatus, post-emergence, read-out: Plant response rating, Waterhemp_RES2
Summary of the method: as §3

[12] = tested on: waterhemp; experiment: Test E postemergence; type: in vivo, Amaranthus rudis; conditions: Amaranthus tuberculatus, post-emergence, read-out: Plant response rating, Waterhemp
Summary of the method: as §3

[13] = tested on: arrowleaf sida; experiment: Test E postemergence; type: in vivo, Sida rhombifolia; conditions: Sida rhombifolia, post-emergence, read-out: Plant response rating, Arrowleaf Sida
Summary of the method: as §3

[14] = tested on: yellow nutsedge; experiment: Test E preemergence; type: in vivo, Cyperus esculentus; conditions: for Nutsedge, Yellow plant response rating: scale 0 to 100 (0 no effect, 100 complete control); for Plant response rating, Nutsedge, Yellow: scale 0 to 100, 0 no effect, 100 complete control
Source text: as §1, §2

[15] = tested on: hairy beggarticks; experiment: Test E postemergence; type: in vivo, Bidens pilosa; conditions: Bidens pilosa, post-emergence, read-out: Plant response rating, Beggarticks
Summary of the method: as §3

[16] = Postemergence, 31 g ai/ha, scale 0 to 100
[17] = Postemergence, 62 g ai/ha, scale 0 to 100
[18] = Postemergence, 125 g ai/ha, scale 0 to 100
[19] = postemergence, 16 g ai/ha, scale 0 to 100, 0 no effect, 100 complete control

For `N#Cc1cccc(Oc2ncc(Cl)cn2)c1-n1cc(Br)cn1` [Compound 52, 2-(4-bromo-1H-pyrazol-1-yl)-3-[(5-chloro-2-pyrimidinyl)oxy]benzonitrile], the plant response (crop injury) rating, soybean, 0-100 scale at 31 g/ha [1, 16] was 75%, the plant response (crop injury) rating, soybean, 0-100 scale at 62 g/ha [1, 17] was 90% and the plant response (crop injury) rating, soybean, 0-100 scale at 125 g/ha [1, 18] was 95%. For the same compound, the plant response (crop injury) rating, soybean, 0-100 scale at 16 g/ha [1, 19] was 70%, the “Crabgrass, Large plant response rating” value ([2]; 16 g ai/ha) was 0 and the “Crabgrass, Large plant response rating” value ([2]; 31 g ai/ha) was 35. The “Crabgrass, Large plant response rating” value ([2]; 62 g ai/ha) was 98, the “Plant response rating, Crabgrass, Large” value ([2]; 125 g ai/ha) was 100 and the “Plant response rating, Crabgrass, Large” value ([2]; 250 g ai/ha) was 100. The “Nightshade plant response rating” value ([3]; 16 g ai/ha) was 0, the “Nightshade plant response rating” value ([3]; 31 g ai/ha) was 0 and the “Nightshade plant response rating” value ([3]; 62 g ai/ha) was 75. The “Plant response rating, Nightshade” value ([3]; 125 g ai/ha) was 98, the “Plant response rating, Nightshade” value ([3]; 250 g ai/ha) was 100 and the “Lambsquarters plant response rating” value ([4]; 16 g ai/ha) was 0. For the same compound, the “Lambsquarters plant response rating” value ([4]; 31 g ai/ha) was 75, the “Lambsquarters plant response rating” value ([4]; 62 g ai/ha) was 98 and the “Plant response rating, Lambsquarters” value ([4]; 125 g ai/ha) was 98. The “Plant response rating, Lambsquarters” value ([4]; 250 g ai/ha) was 100, the “Beggarticks plant response rating” value ([5]; 16 g ai/ha, preemergence) was 0 and the “Beggarticks plant response rating” value ([5]; 31 g ai/ha, preemergence) was 0. The “Plant response rating, Beggarticks” value ([5]; Preemergence, 62 g ai/ha) was 0, the “Plant response rating, Beggarticks” value ([5]; preemergence, 125 g ai/ha) was 40 and the “Plant response rating, Beggarticks” value ([5]; preemergence, 250 g ai/ha) was 65. For the same compound, the “Goosegrass plant response rating” value ([6]; 16 g ai/ha) was 5, the “Goosegrass plant response rating” value ([6]; 31 g ai/ha) was 50 and the “Goosegrass plant response rating” value ([6]; 62 g ai/ha) was 65. For the same compound, the “Plant response rating, Goosegrass” value ([6]; 125 g ai/ha) was 98, the “Plant response rating, Goosegrass” value ([6]; 250 g ai/ha) was 100 and the pest or weed control at 31 g/ha [7, 16] was 40%. For the same compound, the pest or weed control at 62 g/ha [7, 17] was 50%, the pest or weed control at 125 g/ha [7, 18] was 60% and the pest or weed control at 16 g/ha [7, 19] was 30%. The “Johnsongrass plant response rating” value ([8]; 16 g ai/ha) was 0, the “Johnsongrass plant response rating” value ([8]; 31 g ai/ha) was 0 and the “Johnsongrass plant response rating” value ([8]; 62 g ai/ha) was 30. For the same compound, the “Plant response rating, Johnsongrass” value ([8]; 125 g ai/ha) was 70, the “Plant response rating, Johnsongrass” value ([8]; 250 g ai/ha) was 98 and the pest or weed control at 31 g/ha [9, 16] was 10%. The pest or weed control at 62 g/ha [9, 17] was 25%, the pest or weed control at 125 g/ha [9, 18] was 20% and the pest or weed control at 16 g/ha [9, 19] was 15%. For the same compound, the pest or weed control at 31 g/ha [10, 16] was 10%, the pest or weed control at 62 g/ha [10, 17] was 10% and the pest or weed control at 125 g/ha [10, 18] was 40%. The pest or weed control at 16 g/ha [10, 19] was 5%, the pest or weed control at 31 g/ha [11, 16] was 90% and the pest or weed control at 62 g/ha [11, 17] was 95%. The pest or weed control at 125 g/ha [11, 18] was 90%, the pest or weed control at 16 g/ha [11, 19] was 80% and the pest or weed control at 31 g/ha [12, 16] was 70%. It also gave a pest or weed control at 62 g/ha [12, 17] of 75%, a pest or weed control at 125 g/ha [12, 18] of 95% and a pest or weed control at 16 g/ha [12, 19] of 65%. For the same compound, the pest or weed control at 31 g/ha [13, 16] was 60%, the pest or weed control at 62 g/ha [13, 17] was 70% and the pest or weed control at 125 g/ha [13, 18] was 70%. The pest or weed control at 16 g/ha [13, 19] was 50%, the “Nutsedge, Yellow plant response rating” value ([14]; 16 g ai/ha) was 0 and the “Nutsedge, Yellow plant response rating” value ([14]; 31 g ai/ha) was 0. For the same compound, the “Nutsedge, Yellow plant response rating” value ([14]; 62 g ai/ha) was 0, the “Plant response rating, Nutsedge, Yellow” value ([14]; 125 g ai/ha) was 25 and the “Plant response rating, Nutsedge, Yellow” value ([14]; 250 g ai/ha) was 50. For the same compound, the pest or weed control at 31 g/ha [15, 16] was 60%, the pest or weed control at 62 g/ha [15, 17] was 70% and the pest or weed control at 125 g/ha [15, 18] was 75%. It also gave a pest or weed control at 16 g/ha [15, 19] of 30%.
